Molecules are shown by their SMILES.

The test deals with HCV replicon. As to the kind of experiment: HCV replicon replication assay (NPT level by captured ELISA). Type of test: cell-based. As to conditions: Hepatitis C virus, 72 h; Huh-7 HCV replicon-containing cells, three days incubation; read-out: Activity (inhibition of HCV replicon replication). On the procedure:
Compounds claimed herein are tested for the ability to inhibit viral replication of the Hepatitis C replicon in cultured cells in which the HCV replicon construct has been incorporated. The HCV replicon system was described by Bartenschlager, et. al (Science, 285, pp. 110-113 (1999)). The replicon system is predictive of in vivo anti-HCV activity; compounds that are active in humans uniformly evidence activity in the replicon assay.
In this assay HCV replicon containing cells are treated with different concentrations of the test compound to ascertain the ability of the test compound to suppress replication of the HCV replicon. As a positive control, HCV replicon-containing cells are treated with different concentrations of interferon alpha, a known inhibitor of HCV replication. The replicon assay system includes Neomycin Phosphotransferase (NPT) as a component of the replicon itself in order to detect the transcription of replicon gene products in the host cell. Cells in which the HCV replicon is actively replicating have high levels of NPT; the level of NPT is proportional to HCV replication. […] The NPT level of each sample is measured using a captured ELISA.
A protocol for testing compounds for the ability to inhibit viral replication of the Hepatitis C replicon cultured cells in which the replicon construct has been incorporated, follows.
The HCV replicon contains, 5′-3′, the HCV-IRES, the neomycin phosphotransferase (neo) gene, the IRES of encephalomyocarditis virus, which directs translation of HCV sequences NS3 to NS5B, and the 3′-NTR. The sequence of the HCV replicon has been deposited in GenBank (Accession no. AJ242652).
The replicon is transfected into Huh-7 cells using standard methods such as electroporation.
The equipment and materials include, but are not limited to, Huh-7 HCV replicon-containing cells, maintenance media (DMEM (Dulbecco's modified Eagle media) supplemented with 10% FBS, L-glutamine, non-essential amino acids, penicillin (100 units/ml), streptomycin (100 micrograms/ml), and 500 micrograms/ml of Geneticin (G418), screening media (DMEM supplemented with 10% FBS, L-glutamine, non-essential amino acids, penicillin (100 units/ml) and streptomycin (100 micrograms/ml)), 96 well tissue culture plates (flat bottom), 96 well plates (U bottom for drug dilution), Interferon alpha for positive control, fixation reagent (such as methanol: acetone), primary antibody (rabbit anti-NPTII), secondary antibody: Eu—N1 1, and enhancement solution.
HCV replicon-containing cells are rinsed with once PBS once; 2 mls of trypsin are then added. Cells are incubated at 37° C. in a 5% CO2 incubator for 3-5 minutes. 10 mls of complete medium is added to stop the reaction. Cells are blown gently, put into a 15 ml tube, and spun at 1200 rpm for four minutes. The trypsin/medium solution is removed and 5 mls of medium (500 ml DMEM (high glucose)) from BRL catalog #12430-054; 50 mls 10% FBS, 5% Geneticin G418 (50 mg/ml, BRL catalog #10131-035), 5 ml MEM non-essential amino acids (100×BRL #11140-050) and 5 ml pen-strep (BRL #15140-148) is added. The cells and media are mixed carefully
Cells are plated with screening medium (500 ml DMEM (BRL #21063-029), 50 ml FBS (BRL #10082-147) and 5 ml MEM non-essential amino acid (BRL #11140-050) at 6000-7500 cells/100 μl/well of 96 well plate (6-7.5×10^5 cells/10 ml/plate). Plates are placed into 37° C. 5% CO2 incubator overnight.
The following morning, drugs (test compounds or interferon alpha) are diluted in 96 well U bottom plates with media or DMSO/media, depending on the final concentration chosen for screening. Generally for 6 concentrations of each test compounds ranging from 10 micromolar to 0.03 micromolar are applied. 100 μl of the test compound dilution is placed in wells of the 96 well plate containing the HCV replicon cells. Media without drug is added to some wells as a negative controls. DMSO is known to affect cell growth. […]
For orientation: Replicon systems follow genome replication, usually without infectious particles.

In the case of `Fc1sc(Nc2ccc(OCCCCc3cccs3)c(C(F)(F)F)c2)nc1-c1cccnc1` [Cmp 90, 5-fluoro-4-(pyridin-3-yl)-N-(4-(4-(thiophen-2-yl)butoxy)-3-(trifluoromethyl)phenyl)thiazol-2-amine], the EC50 was less than 1000 nM.

With `CCCCCCCCOc1cc(Nc2nc(-c3cnc(OC)nc3)cs2)ccc1C` [Cmp 46, 4-(2-methoxypyrimidin-5-yl)-N-(4-methyl-3-(octyloxy)phenyl)thiazol-2-amine], the EC50 was less than 1000 nM.

As for `FC(F)(F)c1cc(Nc2nc(-c3cccnc3)cs2)ccc1OCCCCCc1ccccc1` [Cmp 21], the EC50 was less than 1000 nM.

Regarding `FC(F)(F)c1cc(Nc2nc(-c3cccnc3)cs2)ccc1OCCCCc1cnc2ccccc2c1` [Cmp 145, 4-(pyridin-3-yl)-N-(4-(4-(quinolin-3-yl)butoxy)-3-(trifluoromethyl)phenyl)thiazol-2-amine], the EC50 was less than 1000 nM.

For `CCCCCCCCc1ccc(Nc2nc(-c3ccc(OC(=O)[C@@H](N)C(C)C)nc3)cs2)cc1C(F)(F)F` [Cmp 135, (S)-5-(2-(4-octyl-3-(trifluoromethyl)phenylamino)thiazol-4-yl)pyridin-2-yl 2-amino-3-methylbutanoate], the EC50 was 1000 to 10000 nM.

In the case of `Cc1ccc(CCCCOc2cc(Nc3nc(-c4cccnc4)c(F)s3)ccc2C(F)(F)F)cc1` [Cmp 126], the EC50 is less than 1000 nM.

With `CCCCCOc1cc(Nc2nc(-c3cccnc3)c(F)s2)ccc1C#N` [Cmp 30, -(5-fluoro-4-(pyridin-3-yl)thiazol-2-ylamino)-2-(pentyloxy)benzonitrile], the EC50 was less than 1000 nM.

On to `CCCCCCc1ccc(Nc2nc(-c3cnc(OC)nc3)cs2)cc1C(F)(F)F` [Cmp 113, N-(4-hexyl-3-(trifluoromethyl)phenyl)-4-(2-methoxypyrimidin-5-yl)thiazol-2-amine], for which the EC50 is less than 1000 nM.

As for `CC(F)(F)c1cc(Nc2nc(-c3cccnc3)c(F)s2)ccc1Oc1ccccc1` [Cmp 82, N-(3-(1,1-difluoroethyl)-4-phenoxyphenyl)-5-fluoro-4-(pyridin-3-yl)thiazol-2-amine], the EC50 is less than 1000 nM.

Regarding `Fc1ccc(C#CCCOc2ccc(Nc3nc(-c4cccnc4)c(F)s3)cc2C(F)(F)F)cc1` [Cmp 163, 5-fluoro-N-(4-(4-(4-fluorophenyl)but-3-ynyloxy)-3-(trifluoromethyl)phenyl)-4-(pyridin-3-yl)thiazol-2-amine], the EC50 was less than 1000 nM.

For the molecule `CCCCCCCCc1cc2ccc(Nc3nc(-c4ccc(C)nc4)cs3)cc2o1` [Cmp 115, 4-(6-methylpyridin-3-yl)-N-(2-octylbenzofuran-6-yl)thiazol-2-amine], the EC50 is less than 1000 nM.

As to `CCCCCCCCc1cc2ccc(Nc3nc(-c4cccnc4)c(F)s3)cc2o1` [Cmp 133, 5-fluoro-N-(2-octylbenzofuran-6-yl)-4-(pyridin-3-yl)thiazol-2-amine], the EC50 was less than 1000 nM.

Take `Cc1ccc(CCCCOc2ccc(Nc3nc(-c4cccnc4)c(F)s3)cc2C(F)(F)F)cc1` [Cmp 107, 5-fluoro-4-(pyridin-3-yl)-N-(4-(4-p-tolylbutoxy)-3-(trifluoromethyl)phenyl)thiazol-2-amine]: the EC50 was less than 1000 nM.

Regarding `CCCCCCCCOc1ccc(Nc2nc(-c3ccc4nncn4c3)c(F)s2)cc1C(F)(F)F` [Cmp 214, 4-([1,2,4]triazolo[4,3-a]pyridin-6-yl)-5-fluoro-N-(4-(octyloxy)-3-(trifluoromethyl)phenyl)thiazol-2-amine], the EC50 is less than 1000 nM.

Turning to `CCCCCCCCOc1ccc(Nc2nc(-c3ccsc3C(N)=O)c(F)s2)cc1C(F)(F)F` [Cmp 188, 3-(5-fluoro-2-(4-(octyloxy)-3-(trifluoromethyl)phenylamino)thiazol-4-yl)thiophene-2-carboxamide], the EC50 was less than 1000 nM.

As to `COc1ncc(-c2csc(Nc3ccc(Oc4ccccc4)c(C(C)=O)c3)n2)cn1` [Cmp 86, 1-(5-(4-(2-methoxypyrimidin-5-yl)thiazol-2-ylamino)-2-phenoxyphenyl)ethanone], the EC50 was less than 1000 nM.

For the molecule `CCCCCCCCOc1ccc(N(N)c2nc(-c3cccnc3)cs2)cc1C(F)(F)F` [Cmp 44, 2-(1-(4-(octyloxy)-3-(trifluoromethyl)phenyl)hydrazinyl)-4-(pyridin-3-yl)thiazolo], the EC50 is less than 1000 nM.

As to `CCCCCCCCc1cc(Nc2nc(-c3cccnc3)cs2)cc(C(F)(F)F)c1` [Cmp 80, N-(3-octyl-5-(trifluoromethyl)phenyl)-4-(pyridin-3-yl)thiazol-2-amine], the EC50 was less than 1000 nM.

Consider `Cc1ccc(Nc2nc(-c3cccnc3)cs2)cc1OCC1CCCCC1` [Cmp 38, N-(3-(cyclohexylmethoxy)-4-methylphenyl)-4-(pyridin-3-yl)thiazol-2-amine], for which the EC50 was less than 1000 nM.

Take `Fc1ccc(C#CCCOc2ccc(Nc3nc(-c4cccnc4)cs3)cc2C(F)(F)F)cc1` [Cmp 24, N-(4-(4-(4-fluorophenyl)but-3-ynyloxy)-3-(trifluoromethyl)phenyl)-4-(pyridin-3-yl)thiazol-2-amine]: the EC50 is less than 1000 nM.

Regarding `CCCCCCCCc1ccc(Nc2nc(-c3ccncc3)c(F)s2)cc1C(F)(F)F` [Cmp 167, 5-fluoro-N-(4-octyl-3-(trifluoromethyl)phenyl)-4-(pyridin-4-yl)thiazol-2-amine], the EC50 is less than 1000 nM.

For `CCCCCCCC(C)(C)Oc1ccc(Nc2nc(-c3cccnc3)c(F)s2)cc1C(F)(F)F` [Cmp 221, 5-fluoro-N-(4-(2-methylnonan-2-yloxy)-3-(trifluoromethyl)phenyl)-4-(pyridin-3-yl)thiazol-2-amine], the EC50 is less than 1000 nM.

On to `CCCCCCCCc1c(F)cc(Nc2nc(-c3cccnc3)cs2)cc1F` [Cmp 94, N-(3,5-difluoro-4-octylphenyl)-4-(pyridin-3-yl)thiazol-2-amine], for which the EC50 is less than 1000 nM.

On to `CCCCOCCCCc1ccc(Nc2nc(-c3cccnc3)c(F)s2)cc1C(F)(F)F` [Cmp 234, N-(4-(4-butoxybutyl)-3-(trifluoromethyl)phenyl)-5-fluoro-4-(pyridin-3-yl)thiazol-2-amine], for which the EC50 is less than 1000 nM.

On to `Cc1ccc(Nc2nc(-c3ccc(F)cc3)cs2)cc1OCC1CCCCC1` [Cmp 42, N-(3-(cyclohexylmethoxy)-4-methylphenyl)-4-(4-fluorophenyl)thiazol-2-amine], for which the EC50 is less than 1000 nM.

On to `CC(C)(C)c1cc2cc(Nc3nc(-c4cccnc4)cs3)ccc2o1` [Cmp 150, N-(2-tert-butylbenzofuran-5-yl)-4-(pyridin-3-yl)thiazol-2-amine], for which the EC50 was less than 1000 nM.

Turning to `CCCCCCCCc1ccc(Nc2nc(-c3ccc(O)nc3)c(F)s2)cc1C(F)(F)F` [Cmp 101, 5-(5-fluoro-2-(4-octyl-3-(trifluoromethyl)phenylamino)thiazol-4-yl)pyridin-2-ol], the EC50 is less than 1000 nM.

As to `CCc1ccc(Oc2ccc(Nc3nc(-c4cccnc4)cs3)cc2C(F)(F)F)cc1` [Cmp 49, N-(4-(4-ethylphenoxy)-3-(trifluoromethyl)phenyl)-4-(pyridin-3-yl)thiazol-2-amine], the EC50 was less than 1000 nM.

In the case of `Cc1cccc(OCCCc2ccc(Nc3nc(-c4cccnc4)cs3)cc2C(F)(F)F)c1` [Cmp 91, 4-(pyridin-3-yl)-N-(4-(3-(m-tolyloxy)propyl)-3-(trifluoromethyl)phenyl)thiazol-2-amine], the EC50 is less than 1000 nM.

In the case of `CCCCCCC[C@H](C)Oc1ccc(Nc2nc(-c3cccnc3)c(F)s2)cc1C(F)(F)F` [Cmp 232, (S)-5-fluoro-N-(4-(nonan-2-yloxy)-3-(trifluoromethyl)phenyl)-4-(pyridin-3-yl)thiazol-2-amine], the EC50 is less than 1000 nM.

Values taken from patent US8183263B2 (priority 2007, dated 2012).
